Test results as given in patent US12643867B2, “Compositions and uses thereof” (University of Virginia Patent Foundation, priority 2017, dated 2026).

Experiments:
BRAF = target: T1, BRAF (Homo sapiens, UniProt P15056); assay: ATP acyl phosphate chemical proteomics in lung cancer cell proteomes; assay type: binding
T1 construct: measure selectivity of compounds against native kinases detected in lung cancer proteomes; endogenous in cells; host or cells: A549 and H82 lung cancer cell proteomes
Protocol: LC-MS analysis of SILAC samples using ATP acyl phosphates. Quantitative chemoproteomics was performed as previously described (Franks et al., 2017; McCloud et al., 2018).
Computational Methods. Data for A549 and H82 cell lines were searched with IP2 and manually validated using the methods previously described (Franks et al., 2017). Data for Desthiobiotin-tagged ATP acyl-phosphate probes and ATP competitive peptides were compared and clustered. Ritanserin and ketanserin inhibition profiles were compared using SILAC ratios and normalized to DMSO.
Based on previous chemical proteomics (Franks, 2017), it was hypothesized that ritanserin is functioning as a kinase inhibitor to mediate cytotoxicity in the lung cancer cell models. […] For these studies, NSCLC and SCLC cells were cultured in isotopically light and heavy amino acids to enable quantitative chemical proteomics (Chang. 2015) by stable isotope labeling with amino acids in cell culture (SILAC, FIG. 17A). […] After probe labeling, light and heavy proteomes were combined, digested with trypsin protease, and desthiobiotin-modified peptides enriched by avidin affinity chromatography and analyzed by LC-MS/MS to identify and quantify isotopically tagged active-site peptides from native kinases as previously described(Franks, 2017) (FIG. 17A).
To further confirm that ritanserin is a CRAF inhibitor, a targeted parallel reaction monitoring method (PRM) was developed to evaluate compound activity against CRAF and other members of the RAF family (ARAF and BRAF). Targeted PRM was needed because of the low abundance of CRAF compared with ARAF and BRAF). […] Ritanserin activity was also measured against RAF kinases in A549 proteomes using the targeted LC-MS method. […] The data further support previous findings that this RAF member is enriched in SCLC cells (REF).

[1] = target: T2, hDGKa C1 domain cysteines (Homo sapiens, UniProt P23743); assay: JWB003 labeling competition in vitro; assay type: binding
T2 construct: expressed in transfected cells; host or cells: HEK293T
T2 sequence (P23743 whole entry, the tested form may be a part): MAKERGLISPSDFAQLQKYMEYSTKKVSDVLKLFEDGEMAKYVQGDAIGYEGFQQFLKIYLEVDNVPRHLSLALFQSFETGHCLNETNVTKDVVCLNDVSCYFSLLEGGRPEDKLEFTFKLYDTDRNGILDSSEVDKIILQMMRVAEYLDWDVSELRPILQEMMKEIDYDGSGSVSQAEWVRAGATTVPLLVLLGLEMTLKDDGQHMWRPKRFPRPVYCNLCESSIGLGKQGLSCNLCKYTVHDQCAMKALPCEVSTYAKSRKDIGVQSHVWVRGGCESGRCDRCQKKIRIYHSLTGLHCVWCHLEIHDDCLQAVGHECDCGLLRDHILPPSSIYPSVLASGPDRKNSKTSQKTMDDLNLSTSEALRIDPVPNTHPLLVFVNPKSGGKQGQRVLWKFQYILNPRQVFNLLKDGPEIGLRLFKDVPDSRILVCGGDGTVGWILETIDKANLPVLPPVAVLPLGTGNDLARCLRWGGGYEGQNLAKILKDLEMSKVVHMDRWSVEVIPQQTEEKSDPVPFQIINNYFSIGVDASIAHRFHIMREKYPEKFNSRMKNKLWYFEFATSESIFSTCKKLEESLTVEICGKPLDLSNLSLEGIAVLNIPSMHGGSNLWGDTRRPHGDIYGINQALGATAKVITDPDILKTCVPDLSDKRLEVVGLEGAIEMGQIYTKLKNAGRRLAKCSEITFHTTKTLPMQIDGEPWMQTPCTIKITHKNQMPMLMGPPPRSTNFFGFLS
Protocol: • 1. HEK293T cells were harvested in cold PBS. • a. Cells were transferred to Eppendorf tube. • 2. Cells were lysed via tip sonicator. • 3. Cells were fractionated into membrane and soluble fraction. • a. 100,000×G for 45 minutes at 4 degree. • b. Supernatant was separated from cell pellet. • 4. Dilute proteomes to 1 mg/mL in PBS and aliquot appropriate reaction volume (49 μL for probe only; 48 μL for competition+probe) • 5. Cells were treated with 50× inhibitor. • a. Incubated for 1Hr at 37 degree. • 6. Cells were treated with 50× Probe (JWB003). • a. Incubated for 1Hr at 37 degree. • 7. Add 6 μL of master mix to each alkyne probe-labeled sample. • a. 1 μL of 1.25 mM Rh-N3 • b. 1 μL of fresh 50 mM TCEP • c. 3 μL of 1.7 mM TBTA stock • d. 1 μL of 50 mM CuSO4 • 8. Vortex samples. • 9. Incubate at room temperature for 1 hr • 10. Quench with 17 μL of 4×SDS-PAGE loading buffer+βME and vortex tubes. • 11. Analyze 30 μL samples by SDS-PAGE immediately. [B] Labeling HEK293T Cells to Determine Target Proteins of JWB003 in Live Cells (In Situ) • 1. Complete media was removed from HEK293T cells and replaced with serum free media containing JWB003 at the appropriate final concentration • a. Cells were placed in incubator for appropriate time at 37 degree 5% CO2 • 2. Cells were washed • a. 2× warm PBS • b. 2× cold PBS • c. Harvest cells in cold PBS • 3. Cells were transferred to Eppendorf tube • 4. Cells were lysed via tip sonicator • 5. Cells were fractionated into membrane and soluble fraction • a. 100,000×G for 45 minutes at 4 degrees • b. Supernatant was separated from cell pellet. • 6. Dilute proteomes to 1 mg/mL and aliquot appropriate reaction volume (50 μL) • 7. Add 6 μL of master mix to each alkyne probe-labeled sample. • a. 1 μL of 1.25 mM Rh-N3 • b. 1 μL of fresh 50 mM TCEP • c. 3 μL of 1.7 mM TBTA stock • d. 1 μL of 50 mM CuSO4 • 8. Vortex samples. • 9. Incubate at room temperature for 1 hr. • 10. Quench with 17 μL of 4×SDS-PAGE loading buffer+βME and vortex tubes. • 11. Analyze 30 μL samples by SDS-PAGE immediately. [C] […]

[2] = system: Bone Marrow Derived Macrophages (BMDMs), noncancerous primary cells; assay: WST-1 Cell Proliferation Assay; assay type: cell-based; conditions: ritanserin highest concentration tested 50 μM; staurosporine 1 μM

T1 sequence (P15056 whole entry): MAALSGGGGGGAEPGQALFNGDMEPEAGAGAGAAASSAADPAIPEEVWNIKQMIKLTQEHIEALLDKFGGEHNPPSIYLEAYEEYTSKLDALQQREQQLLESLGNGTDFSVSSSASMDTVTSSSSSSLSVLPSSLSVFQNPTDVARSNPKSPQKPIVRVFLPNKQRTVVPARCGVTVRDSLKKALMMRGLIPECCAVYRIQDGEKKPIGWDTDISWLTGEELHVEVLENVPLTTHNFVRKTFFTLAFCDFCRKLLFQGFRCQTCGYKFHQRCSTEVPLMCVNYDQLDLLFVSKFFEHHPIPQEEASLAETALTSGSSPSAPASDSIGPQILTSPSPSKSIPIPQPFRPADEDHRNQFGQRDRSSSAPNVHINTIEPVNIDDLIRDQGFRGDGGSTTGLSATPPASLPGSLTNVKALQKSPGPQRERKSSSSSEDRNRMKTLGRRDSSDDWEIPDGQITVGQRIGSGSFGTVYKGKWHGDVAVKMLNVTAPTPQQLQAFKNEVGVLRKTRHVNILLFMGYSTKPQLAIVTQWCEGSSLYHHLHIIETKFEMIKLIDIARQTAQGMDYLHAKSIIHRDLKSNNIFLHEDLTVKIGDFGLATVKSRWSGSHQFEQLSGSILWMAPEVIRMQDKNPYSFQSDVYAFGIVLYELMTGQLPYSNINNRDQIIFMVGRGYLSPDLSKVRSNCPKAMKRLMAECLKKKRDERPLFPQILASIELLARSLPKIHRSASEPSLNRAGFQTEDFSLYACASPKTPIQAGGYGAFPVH

For Cc1nc2sccn2c(=O)c1CCN1CCC(=C(c2ccc(F)cc2)c2ccc(F)cc2)CC1 [Ritanserin], the “inhibition by three-fold change cutoff” value (BRAF; 100 μM, A549 and H82 proteomes) was “BRAF inhibition”, the “activity by targeted PRM” value (BRAF; H82 proteomes) was “negligible activity” and the “inhibition of JWB003 probe labeling of hDGKa” value [1] was “Probe labeling is inhibited”. For the same compound, the “cell killing of noncancerous primary cells (WST-1), words” value [2] was “negligible cell killing”.
